Reference: US8597646B2, “Methods and compositons featuring TGF-beta antagonists for the treatment of marfan syndrome and associated disorders” (The Johns Hopkins University, priority 2005, dated 2013)
“Also recorded” adds a separate entry of the source.

Tests used:
[1] = system: mdx mice; assay: Long-term losartan in mdx mice: fibrosis and centrally located nuclei in diaphragm and gastrocnemius; format: in vivo, mouse
Protocol: (§1) Mice were continued on oral therapy for 6 months and sacrificed. […] Age-matched wild-type and mdx mice (placebo-treated) served as a control group. After 6 months of treatment, forelimb and hindlimb grip strength was assessed using an automated grip strength meter (Columbus Instruments, Columbus, Ohio). The experiments for forelimb and hindlimb grip strength testing were conducted at different days allowing for a minimum recovery period of 10 days. Total peak force (in Newtons) was determined by an electronic strain gauge as previously described and corrected for body weight (Wagner, K. R., et al. (2002) Ann Neurol 52, 832-6). Five measurements within 2 minutes were taken from each animal. The three highest measurements for each animal were averaged to give the strength score. The degree of fatigue was calculated by comparing the first two pulls to the last two pulls with the decrement between pulls 1+2 and pulls 4+5 providing a measure of fatigue. Similarly, functional measurements were performed in 6 month old fibrillin-1 deficient mice (Fbn1^mgR) (Pereira, L. et al. (1997) Nat Genet. 17, 218-22) after 5 months of treatment.
For morphometric analyses, skeletal muscle was flash frozen in cooled isopentane and mounted in Tragacanth (Sigma Aldrich, USA). Subsequently, 10 μm sections were stained with hematoxylin and eosin. Muscle fibers were counted in a defined area (9 mm^2) of the tibialis anterior muscle of 10-day-old wild-type (n=3) and Fbn1C1039G/C1039G mice (n=6) and fiber diameter was determined by measuring the shortest fiber axis within cross-sections of the tibialis anterior muscle, counting a total of 850-1500 fibers. The cross sectional area of undamaged and regenerating myofibers of the tibialis anterior muscle from wild-type and Fbn1^C1039G/+ mice was expressed as a distribution of the percentage of the total number of myofibers analyzed (850-1500) (Horsley, V. et al (2003) Cell 113, 483-94). Sections of skeletal muscle were taken along the same anatomical region of the mid-belly of the tibialis anterior muscle. The number of c-met, M-cadherin- and myogeninpositive cells in 50 fields of the tibialis anterior muscle mid-belly area was scored using the x40 objective. At least six animals per genotype were scored and all analyses were performed by investigators blinded to genotype and treatment group. All images were taken using an Eclipse E400 microscope (Nikon Inc.) and cross-sectional area measurements were determined using IPLAB software (Scanalytics, Fairfax, Va.). Neonatal myosin-positive fibers after cardiotoxin challenge were quantified by counting 900-1240 fibers per toxin-challenged muscle (n=4). For quantification of fibrotic tissue formation in toxin challenged mice (n=4), immunofluorescent staining for vimentin was performed. Five sections throughout the entire tibialis anterior muscle were analyzed at low magnification and vimentin positive areas were calculated as a percentage of the total muscle area using the NIH Scion image software, public domain. Similarly, van-Gieson and vimentin stained sections were used to delineate the percentage of fibrotic versus total muscle area in diaphragm and gastrocnemius of long-term losartan-treated, placebo-treated mdx and wild-type mice (n=6 each group) using the NIH Scion software. For evaluation of percent centrally located nuclei a total of 1100-1300 muscle fibers per diaphragm of each mouse (n=6, each group) and a total of 1900-2200 muscle fibers per gastrocnemius of each mouse (n=6, each group) were calculated.

[2] = system: mdx mice; assay: Forelimb and hindlimb grip strength and fatigue in mdx mice; format: in vivo, mouse
Protocol: as §1

[3] = system: Fbn1C1039G/+ mice; assay: Lung distal airspace caliber (mean linear intercept) in Fbn1C1039G/+ mice treated postnatally with losartan; format: in vivo, mouse; settings: for Distal airspace caliber / alveolar septation, in words: postnatal losartan, monopotassium salt
Excerpt: This abnormality correlated with increased TGF-β signaling and was prevented by prenatal administration of TGF-β NAb.

[4] = system: C1039G/+ mice; assay: Aortic wall histology (elastic matrix architecture) in treated C1039G/+ mice; format: in vivo, mouse; settings: 4 months of treatment
[5] = system: young patients with an aggressive rate of aortic growth; assay: Losartan in young patients with aggressive rate of aortic growth despite standard therapy; format: in vivo, human; settings: n=8, despite β-adrenergic/ACE blockade, monopotassium salt
Protocol: Markers of TGFβ antagonism have included reduced plasma levels of free TGFβ, reduced intracellular initiation of the TGFβ signaling cascade, and reduced tissue expression of TGFβ-responsive genes. […] Three independent measurements of the aortic root were made from the long axis echo view in systole at each of 3 time points (baseline, 2 and 4 months of treatment; FIG. 8A). All analyses were performed blinded to genotype and treatment arm. […] This represents the first therapeutic strategy for MFS that derives from interrogation of disease pathogenesis and the first possibility for primary prevention of disease manifestations.

[6] = system: Fbn1mgR/mgR mice; assay: Forelimb grip strength and fatigue in Fbn1mgR/mgR mice; format: in vivo, mouse; settings: 5 months of losartan, untreated 28±2.5, wild-type 3±0.8
Protocol: as §1

For `CCCCc1nc(Cl)c(CO)n1Cc1ccc(-c2ccccc2-c2nnn[nH]2)cc1.[K]` [losartan, 2-butyl-4-chloro-1-[p-(o-1H-tetrazol-5-ylphenyl)benzyl]imidazole-5-methanol monopotassium salt], the “Muscle fibers containing centrally located nuclei, diaphragm and gastrocnemius, in words” value ([1]; 6 months of losartan) was “increased percentage”, the “Centrally located nuclei, gastrocnemius” value ([1]; 6 months of losartan, mdx 25±5, wild-type 2±0.5) was 36%±+6 and the “Fibrotic area, diaphragm” value ([1]; 6 months of losartan, mdx 32±5, wild-type 4±1) was 18%±4. For the same molecule, the “Percentage of centrally located nuclei, diaphragm” value ([1]; 6 months of losartan, mdx 35±5, wild-type 2±0.5) was 48%±6, the “Fibrosis, gastrocnemius” value ([1]; 6 months of losartan, mdx 75±6.4, wild-type 4±2) was 89%±5.8 and the “Myopathic disease progression / steady-state architecture in mdx mice” value ([1]; long-term losartan, 9 month-old mdx mice, monopotassium salt) was “significant attenuation of disease progression; also recorded: improved steady-state architecture; also recorded: attenuates myopathic disease progression”. The “Forelimb grip strength (peak force), male” value ([2]; 6 months of losartan, untreated mdx 1.25±0.15) was 1.64±0.29 N, the “Forelimb grip strength (peak force), female” value ([2]; 6 months of losartan, untreated mdx 1.32±0.12) was 1.41±0.15 N and the “Hindlimb grip strength (peak force), female” value ([2]; 6 months of losartan, untreated mdx 1.39±0.14) was 1.79±0.14 N. For the same molecule, the “Hindlimb grip strength (peak force), male” value ([2]; 6 months of losartan, untreated mdx 1.45±0.19) was 1.89±0.23 N, the “Muscle fatigue, forelimb test, female” value ([2]; 6 months of losartan, untreated mdx 34.7±5.7) was 15.2±6% and the “Muscle fatigue, forelimb test, male” value ([2]; 6 months of losartan, untreated mdx 36.3±6.5) was 16.3±5%. The “Muscle fatigue, hindlimb test, female” value ([2]; 6 months of losartan, untreated mdx 37.6±6) was 17.1±4%, the “Muscle fatigue, hindlimb test, male” value ([2]; 6 months of losartan, untreated mdx 39.5±6) was 16.2%±5 and the “Muscle fatigue in response to repetitive challenge, in words” value ([2]; 6 months of treatment) was “significantly less muscle fatigue”. For the same molecule, the “Grip strength versus untreated mdx mice, in words” value ([2]; 6 months of treatment, male and female) was “increased forelimb and hindlimb grip strength”, the Mean linear intercept ([3]; losartan from 7 weeks of age, 6 months, placebo 84.3±15, wild-type 41.3±5) was 53.9±12 μm and the “Distal airspace caliber / alveolar septation, in words” value ([3]; listed as Losartan) was “rescued; also recorded: normalization of the caliber of the distal airspace”. The “Distal airspace caliber / alveolar septation, in words” value [3] was “reduced”, the “Elastic matrix architecture / histologic parameters of the aorta” value [4] was “normalized” and the “Response of aortic growth in patients” value ([5]; listed as Losartan) was “effective”. The “Response of aortic growth in patients” value [5] was “remarkable response” and the Fatigue [6] was 9%±1.8.
